Test results: the NIST ThermoML archive (doi:10.1021/je400733m)

Details: for vapor or sublimation pressure: Liquid; for mass density: Gas, isochoric method

F [hydrogen fluoride]
Details | vapor or sublimation pressure [kPa]
293.12 K | 102.1
303.13 K | 145.3
313.16 K | 202.1
323.08 K | 274.7
333.13 K | 368.7
343.1 K | 487.1
353.14 K | 636.4
363.17 K | 822.2
373.14 K | 1048.5
383.21 K | 1327.1
393.11 K | 1659.3
403.1 K | 2060.2
413.14 K | 2541.3
423.14 K | 3111.5
433.06 K | 3778.1
443.01 K | 4566
454.15 K | 5611.6

Details | mass density [kg/m3]
293.15 K, 27.7 kPa | 0.232
293.15 K, 29 kPa | 0.245
293.15 K, 31.8 kPa | 0.282
293.15 K, 34.5 kPa | 0.32
293.15 K, 37.2 kPa | 0.36
293.15 K, 41.5 kPa | 0.438
293.15 K, 55.5 kPa | 0.802
293.15 K, 69.3 kPa | 1.311
293.15 K, 83.3 kPa | 1.954
293.15 K, 98.6 kPa | 2.86
303.15 K, 26.4 kPa | 0.212
303.15 K, 29.4 kPa | 0.239
303.15 K, 34.2 kPa | 0.283
303.15 K, 38 kPa | 0.32
303.15 K, 41.5 kPa | 0.356
303.15 K, 45.1 kPa | 0.395
303.15 K, 52.7 kPa | 0.491
303.15 K, 64.8 kPa | 0.694
303.15 K, 78 kPa | 0.999
303.15 K, 90 kPa | 1.359
303.15 K, 102.6 kPa | 1.818
303.15 K, 114.8 kPa | 2.327
303.15 K, 126.7 kPa | 2.883
303.15 K, 141.6 kPa | 3.802
313.15 K, 29.3 kPa | 0.227
313.15 K, 35.9 kPa | 0.28
313.15 K, 36.4 kPa | 0.28
313.15 K, 39.6 kPa | 0.307
313.15 K, 41.4 kPa | 0.326
313.15 K, 42.5 kPa | 0.331
313.15 K, 48.3 kPa | 0.385
313.15 K, 53.3 kPa | 0.426
313.15 K, 55.1 kPa | 0.447
313.15 K, 57 kPa | 0.461
313.15 K, 62.1 kPa | 0.51
313.15 K, 68.9 kPa | 0.59
313.15 K, 74 kPa | 0.644
313.15 K, 82.8 kPa | 0.767
313.15 K, 90.7 kPa | 0.883
313.15 K, 96.6 kPa | 0.992
313.15 K, 109.1 kPa | 1.246
313.15 K, 110.3 kPa | 1.285
313.15 K, 124.3 kPa | 1.653
313.15 K, 129.3 kPa | 1.787
313.15 K, 138 kPa | 2.078
313.15 K, 148 kPa | 2.417
313.15 K, 152 kPa | 2.579
313.15 K, 165.7 kPa | 3.118
313.15 K, 165.8 kPa | 3.133
313.15 K, 180.3 kPa | 3.777
313.15 K, 180.5 kPa | 3.797
323.15 K, 55 kPa | 0.422
323.15 K, 100.9 kPa | 0.842
323.15 K, 117.9 kPa | 1.05
323.15 K, 156.9 kPa | 1.731
323.15 K, 181.4 kPa | 2.343
323.15 K, 204.5 kPa | 3.061
323.15 K, 228.7 kPa | 3.949
333.15 K, 29.2 kPa | 0.218
333.15 K, 99.9 kPa | 0.759
333.15 K, 112.6 kPa | 0.863
333.15 K, 142.2 kPa | 1.147
333.15 K, 163.7 kPa | 1.386
333.15 K, 180 kPa | 1.61
333.15 K, 199.2 kPa | 1.904
333.15 K, 222.8 kPa | 2.36
333.15 K, 234.8 kPa | 2.612
333.15 K, 246.2 kPa | 2.902
333.15 K, 270.8 kPa | 3.552
333.15 K, 276.4 kPa | 3.753
333.15 K, 305.8 kPa | 4.693
333.15 K, 317.3 kPa | 5.162
333.15 K, 341.5 kPa | 6.088
333.15 K, 343.5 kPa | 6.229
343.15 K, 24.6 kPa | 0.179
343.15 K, 67.3 kPa | 0.488
343.15 K, 141.7 kPa | 1.05
343.15 K, 244.7 kPa | 2.094
343.15 K, 289.6 kPa | 2.791
343.15 K, 340.6 kPa | 3.856
343.15 K, 375.4 kPa | 4.777
343.15 K, 414.8 kPa | 6.034
343.15 K, 455.3 kPa | 7.553
353.15 K, 50.5 kPa | 0.352
353.15 K, 118.5 kPa | 0.833
353.15 K, 189 kPa | 1.359
353.15 K, 279.3 kPa | 2.154
353.15 K, 334.2 kPa | 2.782
353.15 K, 391.1 kPa | 3.617
353.15 K, 450.1 kPa | 4.75
353.15 K, 509 kPa | 6.216
353.15 K, 583.5 kPa | 8.604
363.15 K, 78.7 kPa | 0.523
363.15 K, 151.2 kPa | 1.024
363.15 K, 268.6 kPa | 1.886
363.15 K, 349.7 kPa | 2.574
363.15 K, 435.2 kPa | 3.463
363.15 K, 519.5 kPa | 4.617
363.15 K, 610.3 kPa | 6.318
363.15 K, 704.7 kPa | 8.73
363.15 K, 792.4 kPa | 11.696
373.15 K, 59.5 kPa | 0.389
373.15 K, 135.1 kPa | 0.89
373.15 K, 249.7 kPa | 1.674
373.15 K, 360.6 kPa | 2.495
373.15 K, 444.9 kPa | 3.191
373.15 K, 555.7 kPa | 4.277
373.15 K, 661.8 kPa | 5.611
373.15 K, 768.8 kPa | 7.405
373.15 K, 872.6 kPa | 9.733
373.15 K, 971.7 kPa | 12.608
383.15 K, 109.3 kPa | 0.69
383.15 K, 256.8 kPa | 1.656
383.15 K, 388.4 kPa | 2.569
383.15 K, 518.3 kPa | 3.557
383.15 K, 666.4 kPa | 4.865
383.15 K, 794.6 kPa | 6.263
383.15 K, 928.9 kPa | 8.187
383.15 K, 1067 kPa | 10.825
383.15 K, 1201 kPa | 14.245
393.15 K, 172.3 kPa | 1.108
393.15 K, 337.7 kPa | 2.178
393.15 K, 505.5 kPa | 3.335
393.15 K, 674.9 kPa | 4.611
393.15 K, 840.7 kPa | 6.052
393.15 K, 1013 kPa | 7.764
393.15 K, 1175 kPa | 10.132
393.15 K, 1344 kPa | 13.239
393.15 K, 1498 kPa | 17.048
403.15 K, 240.6 kPa | 1.492
403.15 K, 449.3 kPa | 2.829
403.15 K, 652.2 kPa | 4.216
403.15 K, 862.3 kPa | 5.791
403.15 K, 1069 kPa | 7.588
403.15 K, 1278 kPa | 9.802
403.15 K, 1491 kPa | 12.74
403.15 K, 1709 kPa | 16.83
403.15 K, 1897 kPa | 21.668
413.15 K, 222.3 kPa | 1.32
413.15 K, 371.4 kPa | 2.232
413.15 K, 508.9 kPa | 3.095
413.15 K, 683.2 kPa | 4.229
413.15 K, 883.6 kPa | 5.621
413.15 K, 1059 kPa | 6.93
413.15 K, 1234 kPa | 8.38
413.15 K, 1399 kPa | 9.914
413.15 K, 1557 kPa | 11.607
413.15 K, 1728 kPa | 13.746
413.15 K, 2034 kPa | 18.831
413.15 K, 2223 kPa | 23.108
433.15 K, 309.8 kPa | 1.785
433.15 K, 698.6 kPa | 4.1
433.15 K, 1068.9 kPa | 6.452
433.15 K, 1452 kPa | 9.113
433.15 K, 1847 kPa | 12.286
433.15 K, 2258 kPa | 16.303
433.15 K, 2635 kPa | 21.034
433.15 K, 3001 kPa | 27.275
433.15 K, 3365 kPa | 36.362
433.15 K, 3703 kPa | 50.976
453.15 K, 476.5 kPa | 2.703
453.15 K, 1014 kPa | 5.793
453.15 K, 1550 kPa | 9.121
453.15 K, 2081 kPa | 12.797
453.15 K, 2621 kPa | 17.077
453.15 K, 3133 kPa | 21.99
453.15 K, 3651 kPa | 28.309
453.15 K, 4173 kPa | 36.974
453.15 K, 4738 kPa | 51.158
453.15 K, 5189 kPa | 73.046
473.15 K, 398.6 kPa | 2.061
473.15 K, 719.1 kPa | 3.785
473.15 K, 1113 kPa | 5.969
473.15 K, 1557 kPa | 8.541
473.15 K, 1986 kPa | 11.159
473.15 K, 2275 kPa | 13.033
473.15 K, 2590 kPa | 15.167
473.15 K, 2992 kPa | 18.107
473.15 K, 3473 kPa | 22.184
473.15 K, 4349 kPa | 30.552
473.15 K, 4995 kPa | 38.609
473.15 K, 5640 kPa | 49.429
473.15 K, 6393 kPa | 68.899
473.15 K, 7041 kPa | 98.187
